Our source for the MIC values is patent US20230255939A1, “Antimicrobial Agent for Non-Human Animal” (ISHIHARA SANGYO KAISHA, LTD, priority 2020, published 2023).

Assay [1] deals with Arthroderma vanbreuseghemii (TIMM2789). Briefly: Antifungal activity test, minimum inhibitory concentration (Test Example 9). The format is cell-based. The following applies: Trichophyton mentagrophytes, Sabouraud media, 28° C. for 72 hours, read-out: Minimum inhibitory concentration (MIC100). As for the experimental part: Test Example 9: Antifungal Activity Test Test Compound: Compound No. 1 Test Microbial Strain: Arthroderma Vanbreuseghemii (TIMM2789) The microbial strain was cultured in a Sabouraud medium containing 500 µg/mL of cycloheximide and 50 µg/mL of chloramphenicol at 28° C. for 8 days, then spores were collected in physiological saline containing Tween80 (0.05% (v/v)), this was filtered through a cell strainer (φ40 µm), the spores were recovered from the filtrate by centrifugation (3500 rpm, 5 minutes) and washed twice with physiological saline, and then a spore suspension was prepared (1 × 10^7 spores/mL). 10 µL of the spore suspension was inoculated into Sabouraud media to which compound No. 1 dissolved in DMSO was added to have various concentrations.

Assay [2] concerns Microsporum canis (IFM63627). Briefly: Antifungal activity test, minimum inhibitory concentration (Test Example 7). It counts as cell-based. The following applies: Sabouraud medium, 32° C. for 72 hours, read-out: Minimum inhibitory concentration (MIC100). Here is the method: Test Example 7: Antifungal Activity Test
Test Compound: Compound No. 6
Test Microbial Strain: Microsporum Canis (IFM63627)
The antifungal activity was studied by partially modifying the method of Test Example 5. Microsporum canis was cultured at 32° C. for 168 hours in a ⅒ Sabouraud medium to form spores, then 10 mL of physiological saline (Otsuka Normal Saline; containing 9 g of sodium chloride in 1000 mL) was added directly onto the medium, and the surface was rubbed using a disposable loop (type 1 (1 µL)) to recover a spore suspension containing hyphae. The spore suspension containing hyphae was filtered through a cell strainer (φ40 µm). The spores were recovered from the filtrate by centrifugation (3500 rpm, 5 minutes) and washed twice with physiological saline, and then a spore suspension was prepared (1 × 10^7 spores/mL). 10 µL of the spore suspension was inoculated into a Sabouraud medium to which the test compound dissolved in DMSO was added to have a predetermined concentration. Microsporum canis was cultured at 32° C. for 72 hours, then the presence or absence of colony growth was investigated, and the minimum inhibitory concentration (MIC100) was determined.

In brackets after ≈: the same amount, converted by molar mass.

For the compound `Cc1ccc(-c2nc(C#N)[nH]c2Cl)cc1` [Compound No. 1, 5-Chloro-4-(4-methylphenyl)-1H-imidazole-2-carbonitrile], the MIC in assay [1] stood at 10 µg/mL (≈ 45.9 µM).

For the compound `Cc1ccc(-c2nc(C#N)[nH]c2Cl)cc1Cl` [Compound No. 6, 5-chloro-4-(3-chloro-4-methylphenyl)-1H-imidazole-2-carbonitrile], in assay [2], the MIC is 5 µg/mL (≈ 19.8 µM).
